Drawing on a melting point compilation (Tetko et al.; mined from patent text by program, amines drawn as free bases though some values may be those of a salt), this text covers melting point for 85 molecules.

The term melting point denotes the temperature, or range, at which the solid turns liquid. In turn, `O=[N+]([O-])c1cnccc1NCc1ccccc1F` yielded a melting point of 108 to 109 °C.

On to `COc1ccc(-c2nnc(NC3CCN(Cc4ccc(C(=O)O)cc4)CC3)c3cc(OC)ccc23)cc1`, for which the melting point is 295 °C.

`CC(=O)CCCCCCCCc1ccc(O)c(O)c1` gave a melting point of 74 to 76 °C.

For `CC(=O)C(=Cc1ccc2c(c1)OCO2)C(C)=O`, the melting point lay in the range of 79 to 80 °C.

As for `CC(C)(C)c1cc(C=Cc2cc(C=Cc3cc(C(C)(C)C)cc(C(C)(C)C)c3)cc(C=C(Br)Br)c2)cc(C(C)(C)C)c1`, the melting point lay in the range of 148 to 150 °C.

For the molecule `CC1(C)CC(OC(=O)c2ccccc2)CC(C)(C)N1OC(=NC1CCCCC1)NC1CCCCC1`, the melting point was 50 to 57 °C.

`O=C(NCCCc1ccc(CCl)cc1)c1ccc(-c2ccccn2)cc1` came in with a melting point of 115 to 117 °C.

Regarding `Cc1ccc(-c2cccc(/C=C/C(=O)Nc3ccc(-c4ccccn4)cc3)c2)cc1`, the melting point lay in the range of 220 to 222 °C.

Molecule `COc1ccc(-c2cccs2)cc1` had a melting point of 111 °C.

`CC(C)(Oc1ccc(Cl)cc1)C(=O)N1[C@@H](C(=O)O)C(C)(C)S[C@H]1c1ccccc1`: the melting point was in the range of 177 to 181 °C.

With `O=C(O)CCc1oc(Oc2ccccc2)nc1-c1ccc(Cl)cc1`, the melting point fell in the range of 136 to 137 °C.

`CCCOc1ccc(C=CCCCCC(=O)O)cc1` yielded a melting point of 52 to 53 °C.

In turn, `COc1cc(OC)c(-c2cccs2)cc1/C=C/C(=O)c1ccc(S(=O)(=O)NCc2cccnc2)cc1` showed a melting point of 167 to 168 °C.

In turn, `CC(C)(CO)Oc1ccc(-c2ccc(N3CCCCC3)cc2)cc1` showed a melting point of 158 to 160 °C.

`N[C@@H](CCC(=O)N[C@@H](CS)C(=O)O)C(=O)O` showed a melting point of 187 °C.

In the case of `CN(c1cccc2cc(C3=NCC4(CCN(CC(N)=O)CC4)S3)[nH]c12)S(=O)(=O)c1cccs1`, the melting point came out at 226 °C.

Take `CCCCS(=O)(=O)Oc1ccc(CCOc2ccc(/C=C(\OCC)C(=O)O)cc2OC)cc1`: the melting point stood at 94 °C.

`CCc1oc2ccccc2c1C(=O)c1cc(C(C)C)c(OS(=O)(=O)c2ccc(C(=O)O)c(O)c2)c(C(C)C)c1` came in with a melting point of 200 to 201 °C.

`NS(=O)(=O)c1ccc(NC(=O)Nc2ccc(Oc3ccccc3)cc2)cc1` yielded a melting point of 236 to 237 °C.

Molecule `CCN(CC)C(=O)c1c(CO)cccc1[Si](C)(C)C` gave a melting point of 81 to 82.5 °C.

As for `CS(=O)(=O)c1cc([N+](=O)[O-])c(C(=O)O)cc1N(CCBr)CCBr`, the melting point was 174 to 176 °C.

For the molecule `O=C(Nc1ccccn1)C(CC1CCCC1)c1ccc(-c2cccnc2)cc1` (stereo not given), the melting point was 139 to 140 °C.

Molecule `O=C(CC(Cc1cccc2ccccc12)C(=O)N[C@@H](Cc1c[nH]cn1)C(=O)N[C@H](CO)Cc1ccccc1)NCCc1ccccc1` (stereo not given in full) registered a melting point of 106 to 109 °C.

`Cc1c(C(=O)Nc2ccc(N3CCN(C4CCOCC4)CC3)c(C#N)c2)cnn1-c1ccc(Br)cc1` showed a melting point of 288 °C.

On to `CS(=O)(=O)NCCNCc1ccccc1`, for which the melting point fell in the range of 71 to 73 °C.

`Cc1ccc(N2CCSC2N)c([N+](=O)[O-])c1` (stereo not given) had a melting point of 132 to 134 °C.

Molecule `Cc1ccc(Nc2nc(-c3ccc(-c4ccccn4)s3)cs2)nc1` gave a melting point of 197 to 199 °C.

The molecule `CCC1C=C(CCN(O)C(N)=O)c2ccccc21` (stereo not given) displayed a melting point of 81 to 83 °C.

Consider `O=C(NC(=O)C(Br)CBr)Nc1ccc(Cl)c(Cl)c1` (stereo not given), for which the melting point is 174 to 175 °C.

The molecule `CC(=O)Nc1ccccc1N(CC(=O)OC(C)(C)C)C(=O)CN1C(=O)c2ccccc2C1=O` yielded a melting point of 170 °C.

`NS(=O)(=O)c1ccc(-c2cccc(-c3nc(-c4ccc(C(F)(F)F)cc4)cc(C(F)F)n3)c2)s1` returned a melting point of 240 °C.

In the case of `CC(=O)Nc1cc(Br)ccc1Sc1ccc([N+](=O)[O-])cc1[N+](=O)[O-]`, the melting point fell in the range of 194 to 196 °C.

Regarding `O=C(O)Cc1nn(Cc2ccc(Br)cc2)c(=O)c2ccccc12`, the melting point lay in the range of 179 to 181 °C.

In turn, `CC(C)Cc1nc[nH]n1` yielded a melting point of 71 to 73 °C.

With `O=C(O)CCCC(=O)c1cn(-c2cccnc2)c2ccccc12`, the melting point fell in the range of 177 to 178 °C.

The molecule `Clc1cccc(N2CCC3CCc4cnccc4C3=N2)c1` (stereo not given) registered a melting point of 152 to 155 °C.

The molecule `CCCNC(=O)C(C)NC(=O)C(C)NC(=O)C(C)NC(=O)OCc1ccccc1` (stereo not given) had a melting point of 268 to 269 °C.

In turn, `N#Cc1c(C(F)(F)F)cc(N(Cc2ccccn2)Cc2ccccn2)cc1C(F)(F)F` came in with a melting point of 122 °C.

The molecule `COc1cc(OC)c(-c2cc3ccccc3[nH]2)cc1C=CC(=O)c1ccc(C(=O)O)cc1` came in with a melting point of 210 to 212 °C.

Regarding `CC(=O)OC12CC3CC(CC(C3)C1)C2`, the melting point lay within 144 to 145 °C.

On to `CC1OC(n2cnc3c(Nc4ccccc4)ccnc32)C(O)C1O` (stereo not given), for which the melting point was found to be 219 °C.

Molecule `COC(=O)CCC(CS(=O)(=O)c1ccc2ccccc2c1)C(=O)N(CCC1CCCCC1)CCC1CCCCC1` (stereo not given) returned a melting point of 116 to 118 °C.

`NCCc1ccc(C(N)=O)cc1` yielded a melting point of 132 to 133 °C.

On to `CS(=O)(=O)c1ccc(-n2nc(C(F)(F)F)cc2-c2ccc(C#Cc3ccccc3)cc2)cc1`, for which the melting point is 170 to 172 °C.

As to `CCCCCc1nc2c(N)nc3ccccc3c2n1CCCCNS(C)(=O)=O`, the melting point was in the range of 137 to 138 °C.

With `O=C(/C=C/c1cccc(F)c1)N1CCN(C(=O)c2cc(C(F)(F)F)cc(C(F)(F)F)c2)[C@H](Cc2c[nH]c3ccccc23)C1`, the melting point lay within 120 to 130 °C.

Consider `Cn1ncc(C(=O)N2CC(F)C2)c1C(=O)Nc1ccn2nc(N3CCOCC3)nc2c1`, for which the melting point was 247 to 250 °C.

`CC(C)n1nc(-c2cc(C(=O)NCc3ccccn3)cnc2-c2ccccc2)ccc1=O` showed a melting point of 193 to 194 °C.

Turning to `COc1ccc2c(c1)C(CCNC(=O)c1ccc(Br)cc1)CC2` (stereo not given), the melting point lay within 142 to 143 °C.

With `Cn1ncnc1COc1nn2c(-c3ccccc3)nnc2c(Cl)c1N1CCCC1`, the melting point is 174 to 176 °C.

The molecule `COc1cc(N)c(Cl)cc1C(=O)NCC1CCN(CCCCCC(=O)c2ccc(C)cc2)CC1` displayed a melting point of 130 to 131 °C.

In turn, `O=C1CCC(N2Cc3c(OCc4ccc(CN5CCSCC5)cc4)cccc3C2=O)C(=O)N1` (stereo not given) gave a melting point of 134 to 136 °C.

For `COc1ccccc1C(=O)NCCc1ccc(CC(=O)O)cc1`, the melting point fell in the range of 154 to 155 °C.

`Cc1ccc(O[C@H]2CCN(C)C[C@H]2O)cc1C` (relative stereo) yielded a melting point of 127 to 129 °C.

On to `CC(C)c1nn2ccccc2c1C(=O)C1CC1`, for which the melting point was 72 °C.

Molecule `COc1ccc(C(=O)OC2(c3nc4ccccc4s3)C=CC(=O)C=C2)cc1` returned a melting point of 137 °C.

`COc1ncnc2c(NC3OC(CO)C(O)C3O)ncnc12` (stereo not given) displayed a melting point of 183 °C.

In the case of `COc1cc(OC)nc(Oc2cccc(Oc3nc(OC)cc(OC)n3)c2C(=O)OCc2ccccc2)n1`, the melting point lay in the range of 130 to 132 °C.

For `CNC(=S)n1nc(Oc2c(Cl)cc(C(F)(F)F)cc2Cl)cc1C`, the melting point is 121 to 123 °C.

Molecule `COC(=O)c1ccc(Cn2nc(-c3ccc(OC)cc3)c(-c3ccc(OC)cc3)cc2=O)cc1` gave a melting point of 186 to 187 °C.

The molecule `CCC(CC)Nc1cc(C)nc(Cl)c1C(=O)OC` returned a melting point of 82 to 84 °C.

Molecule `CCCN(c1ncncc1C#N)n1ccc2ccccc21` had a melting point of 129 to 130 °C.

In turn, `Cc1nc(-c2ccccc2)sc1C(=O)NCc1ccc(OC(C)(C)C(=O)O)cc1` displayed a melting point of 179 °C.

As to `Fc1ccc(-n2c3c(c4cc(F)ccc42)CN(CCc2ccc4ccccc4n2)CC3)cc1`, the melting point was in the range of 201 to 203 °C.

In the case of `CCCc1c(OCCC2Cc3cc(C(=O)CCC(=O)O)ccc3O2)ccc(C(C)=O)c1O` (stereo not given), the melting point is 156 to 158 °C.

With `O=C(NCc1cccc([N+](=O)[O-])c1)c1ccccc1`, the melting point was in the range of 136 to 138 °C.

Regarding `CC(C)(Cn1cnc2c(N)nc3ccccc3c21)OCCS(C)(=O)=O`, the melting point is 261 to 264 °C.

With `Cn1cc(C(=O)O)c(=O)c2cc3cc(F)c(N4CCNC(c5ccc(OCCO)cc5)C4)cc3nc21` (racemic), the melting point is 276 °C.

As to `CN(C)Cc1cnc(NC(=O)[C@H](CC2CCCC2)c2ccc(S(C)(=O)=O)c(Cl)c2)cn1`, the melting point lay in the range of 88 to 91.5 °C.

`CN(CCOC1CCCCO1)c1cc(NC(=O)OC(C)(C)C)c([N+](=O)[O-])cc1C#Cc1ccc(F)cc1` (racemic): the melting point is 134 °C.

Turning to `O=C(OCC(Cl)(Cl)Cl)ON1C(=O)CCC1=O`, the melting point was in the range of 98 to 101 °C.

Molecule `COc1cc(F)ccc1-c1ccc(S(=O)(=O)N2c3ccccc3CC2C(=O)NCc2ccccc2NCCC(=O)O)cc1` (stereo not given) registered a melting point of 121 to 125 °C.

As for `N#CCCNC(=O)c1cccc(-c2ccc3c(n2)C(Oc2ccc(Cl)cc2Cl)CC3)c1` (stereo not given), the melting point was 193 to 194 °C.

`COc1ccccc1Cc1c(Cl)ncnc1Cl` yielded a melting point of 95 to 96 °C.

`CC(C)(C)OC(=O)N1COC(=O)[C@@H]1Cc1ccccc1`: the melting point fell in the range of 84 to 86 °C.

Consider `Cc1nc(-n2ccccc2=O)sc1C(=O)NCc1ccc(F)cc1`, for which the melting point was in the range of 170 to 172 °C.

`COCCCn1c(CO)cc2c3c(c(-c4ccccc4Cl)cc21)C(=O)NC3=O`: the melting point was in the range of 187 to 189 °C.

Molecule `CCCCOc1ccc2c(=O)n(Cc3ccccc3)[nH]c2c1` gave a melting point of 148 to 149 °C.

In turn, `Nc1ccc(Cl)cc1C(O)c1ccccc1F` (stereo not given) gave a melting point of 94 to 98 °C.

The molecule `Cc1cc(-c2ccc(C(F)(F)F)cc2)cc(-c2cccc(-c3cccc(NS(=O)(=O)N4CCOCC4)c3)n2)n1` came in with a melting point of 191 °C.

Molecule `CCCCCCCCCCOc1cc(OCCCOc2ccc(OCc3ccccc3)cc2)cc(C(=O)OC)c1` yielded a melting point of 68 to 70 °C.

Molecule `COc1nccnc1C1(Cl)CN2CCC1CC2` (stereo not given) came in with a melting point of 59 to 60 °C.

On to `CCNS(=O)(=O)c1cccc(NC(=O)c2cnn3c(C(F)F)cc(-c4ccc(C(F)(F)F)c(OCC)c4)nc23)c1`, for which the melting point was 222 °C.

For the molecule `C[C@@H](CC(=O)O)OC(=O)OCc1ccc([N+](=O)[O-])cc1`, the melting point lay in the range of 78 to 81 °C.

Turning to `O=C(O)CCCCCCCCC=Cc1cccs1`, the melting point lay in the range of 61 to 62 °C.
